| SMILES | logP |
| --- | --- |
| O=C(O)C1CCCCN1 (stereo not drawn) | -2.31 |
| NC1(C(=O)O)CCCCC1 | -1.87 |
| NC1(C(=O)O)CCCC1 | -2.28 |
| O=C(O)C1CCNCC1 | -3.05 |
| O=C(O)C1CCCNC1 (stereo not drawn) | -2.89 |
| O=C(O)C1CCN1 (stereo not drawn) | -2.84 |

Continued, values first:

| logP | SMILES |
| --- | --- |
| -3.05 | NCCC(=O)O |
| -2.45 | O=C(O)CCN1CCCCC1 |
| -2.91 | CN(C)CC(=O)O |
| -3.03 | NCCCCCCC(=O)O |
| -2.55 | NCCCCCCCC(=O)O |
| -2.54 | CCC(N)C(=O)O (stereo not drawn) |
| -2.78 | NC1(C(=O)O)CC1 |

Source: the OPERA property sets (Mansouri et al. 2018)
